Laboratory results reported in PubChem BioAssay AID1963429 (Molecular Pharmacology Branch, DTP, NCI, 2024).

Test system: 126254-015-R-J1-PDC complex spheroid growth, % test/control
Experiment: Anticancer human tumor 126254-015-R-J1-PDC patient-derived soft tissue sarcoma cell line growth inhibition [Asc]
Settings: for IC50: curve of first compound; for viability, T/C: stronger effect = lower value
Procedure, shortened: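 Stromal components (HUVEC and hMSC) are co-assembled with the cancer cells into multicellular spheroids. Drugs are then added singly or paired, at concentrations falling by half-log increments from a clinically achievable maximum, capped at 10 microM without known Cmax.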
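Also: spheroids exposed to compound for seven days.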
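For viability, T/C in this document: 100% = DMSO vehicle control wells.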

Question: `Cn1ncnc1[C@H]1c2n[nH]c(=O)c3cc(F)cc(c23)N[C@@H]1c1ccc(F)cc1` + CCN1C(C(=O)NC23CCC(C(=O)O)(CC2)CC3)C(c2cccc(Cl)c2F)C2(C(=O)Nc3cc(Cl)ccc32)C12CCCCC2 was tested. Which IC50 (second compound 0.03 µM) did it give?
Answer: Its IC50 is over 100 nM.

Question: What about the IC50 (second compound 0.0949 µM) of the same compound?
Answer: The IC50 was over 100 nM.

Question: What about the IC50 (second compound 0.3 µM) of the same compound?
Answer: Its IC50 is over 100 nM.

Question: What about the IC50 (second compound 0.949 µM) of the same compound?
Answer: Its IC50 is over 100 nM.

Question: And the IC50 (second compound 3 µM)?
Answer: The IC50 was over 100 nM.

Question: And the viability, T/C (second compound 0.03 µM, first compound 0.000316 µM)?
Answer: Its viability, T/C is 88.6%.

Question: What about the viability, T/C (second compound 0.03 µM, first compound 0.001 µM) of the same compound?
Answer: Its viability, T/C is 108%.

Question: What about the viability, T/C (second compound 0.03 µM, first compound 0.00316 µM) of the same compound?
Answer: The viability, T/C was 88%.

Question: And the viability, T/C (second compound 0.03 µM, first compound 0.01 µM)?
Answer: Its viability, T/C is 96.5%.

Question: What about the viability, T/C (second compound 0.03 µM, first compound 0.0316 µM) of the same compound?
Answer: Its viability, T/C is 83.9%.

Question: What about the viability, T/C (second compound 0.03 µM, first compound 0.1 µM) of the same compound?
Answer: Its viability, T/C is 75.4%.

Question: And the viability, T/C (second compound 0.0949 µM, first compound 0.000316 µM)?
Answer: The viability, T/C was 101%.

Question: And the viability, T/C (second compound 0.0949 µM, first compound 0.001 µM)?
Answer: Its viability, T/C is 102%.

Question: And the viability, T/C (second compound 0.0949 µM, first compound 0.00316 µM)?
Answer: The viability, T/C was 88.4%.

Question: What about the viability, T/C (second compound 0.0949 µM, first compound 0.01 µM) of the same compound?
Answer: Its viability, T/C is 78.2%.

Question: What about the viability, T/C (second compound 0.0949 µM, first compound 0.0316 µM) of the same compound?
Answer: The viability, T/C was 84.7%.

Question: What about the viability, T/C (second compound 0.0949 µM, first compound 0.1 µM) of the same compound?
Answer: Its viability, T/C is 68%.

Question: What about the viability, T/C (second compound 0.3 µM, first compound 0.000316 µM) of the same compound?
Answer: The viability, T/C was 97%.

Question: And the viability, T/C (second compound 0.3 µM, first compound 0.001 µM)?
Answer: The viability, T/C was 111%.

Question: And the viability, T/C (second compound 0.3 µM, first compound 0.00316 µM)?
Answer: The viability, T/C was 104%.

Question: And the viability, T/C (second compound 0.3 µM, first compound 0.01 µM)?
Answer: The viability, T/C was 81.7%.

Question: And the viability, T/C (second compound 0.3 µM, first compound 0.0316 µM)?
Answer: Its viability, T/C is 80.7%.

Question: And the viability, T/C (second compound 0.3 µM, first compound 0.1 µM)?
Answer: Its viability, T/C is 75.2%.

Question: What about the viability, T/C (second compound 0.949 µM, first compound 0.000316 µM) of the same compound?
Answer: Its viability, T/C is 95.3%.

Question: What about the viability, T/C (second compound 0.949 µM, first compound 0.001 µM) of the same compound?
Answer: The viability, T/C was 90.9%.

Question: What about the viability, T/C (second compound 0.949 µM, first compound 0.00316 µM) of the same compound?
Answer: The viability, T/C was 95.6%.

Question: What about the viability, T/C (second compound 0.949 µM, first compound 0.01 µM) of the same compound?
Answer: Its viability, T/C is 86%.

Question: What about the viability, T/C (second compound 0.949 µM, first compound 0.0316 µM) of the same compound?
Answer: The viability, T/C was 95.8%.

Question: And the viability, T/C (second compound 0.949 µM, first compound 0.1 µM)?
Answer: Its viability, T/C is 90.5%.

Question: And the viability, T/C (second compound 3 µM, first compound 0.000316 µM)?
Answer: Its viability, T/C is 96.3%.

Question: What about the viability, T/C (second compound 3 µM, first compound 0.001 µM) of the same compound?
Answer: Its viability, T/C is 103%.

Question: What about the viability, T/C (second compound 3 µM, first compound 0.00316 µM) of the same compound?
Answer: The viability, T/C was 89.9%.

Question: What about the viability, T/C (second compound 3 µM, first compound 0.01 µM) of the same compound?
Answer: Its viability, T/C is 84.8%.

Question: And the viability, T/C (second compound 3 µM, first compound 0.0316 µM)?
Answer: The viability, T/C was 82%.

Question: And the viability, T/C (second compound 3 µM, first compound 0.1 µM)?
Answer: The viability, T/C was 81.6%.

Question: How did the IC50 (second compound 0.01 µM) turn out when `CCN1C(C(=O)NC23CCC(C(=O)O)(CC2)CC3)C(c2cccc(Cl)c2F)C2(C(=O)Nc3cc(Cl)ccc32)C12CCCCC2` (stereo not given) + CNC(C)C(=O)NC1CN(S(=O)(=O)c2cccc(S(=O)(=O)N3CCC4CCC(C(=O)NC(c5ccccc5)c5ccccc5)N4C(=O)C(NC(=O)C(C)NC)C3)c2)CCC2CCC(C(=O)NC(c3ccccc3)c3ccccc3)N2C1=O was run?
Answer: Its IC50 is over 3000 nM.

Question: And the IC50 (second compound 0.0316 µM)?
Answer: The IC50 was over 3000 nM.

Question: And the IC50 (second compound 0.1 µM)?
Answer: Its IC50 is over 3000 nM.

Question: What about the IC50 (second compound 0.316 µM) of the same compound?
Answer: Its IC50 is over 3000 nM.

Question: What about the IC50 (second compound 1 µM) of the same compound?
Answer: The IC50 was over 3000 nM.

Question: And the viability, T/C (second compound 0.01 µM, first compound 0.00949 µM)?
Answer: Its viability, T/C is 88.3%.

Question: And the viability, T/C (second compound 0.01 µM, first compound 0.03 µM)?
Answer: Its viability, T/C is 86.9%.

Question: And the viability, T/C (second compound 0.01 µM, first compound 0.0949 µM)?
Answer: The viability, T/C was 87.7%.

Question: What about the viability, T/C (second compound 0.01 µM, first compound 0.3 µM) of the same compound?
Answer: Its viability, T/C is 77.1%.

Question: And the viability, T/C (second compound 0.01 µM, first compound 0.949 µM)?
Answer: The viability, T/C was 79.8%.

Question: And the viability, T/C (second compound 0.01 µM, first compound 3 µM)?
Answer: Its viability, T/C is 81.2%.

Question: What about the viability, T/C (second compound 0.0316 µM, first compound 0.00949 µM) of the same compound?
Answer: The viability, T/C was 74.4%.

Question: And the viability, T/C (second compound 0.0316 µM, first compound 0.03 µM)?
Answer: Its viability, T/C is 69.4%.

Question: What about the viability, T/C (second compound 0.0316 µM, first compound 0.0949 µM) of the same compound?
Answer: The viability, T/C was 70.2%.

Question: What about the viability, T/C (second compound 0.0316 µM, first compound 0.3 µM) of the same compound?
Answer: The viability, T/C was 74.5%.

Question: What about the viability, T/C (second compound 0.0316 µM, first compound 0.949 µM) of the same compound?
Answer: The viability, T/C was 66.4%.

Question: What about the viability, T/C (second compound 0.0316 µM, first compound 3 µM) of the same compound?
Answer: The viability, T/C was 72.3%.

Question: What about the viability, T/C (second compound 0.1 µM, first compound 0.00949 µM) of the same compound?
Answer: Its viability, T/C is 66%.

Question: What about the viability, T/C (second compound 0.1 µM, first compound 0.03 µM) of the same compound?
Answer: The viability, T/C was 70%.

Question: What about the viability, T/C (second compound 0.1 µM, first compound 0.0949 µM) of the same compound?
Answer: The viability, T/C was 67.4%.

Question: And the viability, T/C (second compound 0.1 µM, first compound 0.3 µM)?
Answer: Its viability, T/C is 64.6%.

Question: What about the viability, T/C (second compound 0.1 µM, first compound 0.949 µM) of the same compound?
Answer: The viability, T/C was 67.7%.

Question: And the viability, T/C (second compound 0.1 µM, first compound 3 µM)?
Answer: Its viability, T/C is 66.5%.

Question: What about the viability, T/C (second compound 0.316 µM, first compound 0.00949 µM) of the same compound?
Answer: The viability, T/C was 54.8%.

Question: What about the viability, T/C (second compound 0.316 µM, first compound 0.03 µM) of the same compound?
Answer: Its viability, T/C is 68%.

Question: And the viability, T/C (second compound 0.316 µM, first compound 0.0949 µM)?
Answer: Its viability, T/C is 60.7%.

Question: What about the viability, T/C (second compound 0.316 µM, first compound 0.3 µM) of the same compound?
Answer: Its viability, T/C is 57.2%.

Question: And the viability, T/C (second compound 0.316 µM, first compound 0.949 µM)?
Answer: Its viability, T/C is 61%.

Question: What about the viability, T/C (second compound 0.316 µM, first compound 3 µM) of the same compound?
Answer: Its viability, T/C is 73%.

Question: And the viability, T/C (second compound 1 µM, first compound 0.00949 µM)?
Answer: Its viability, T/C is 52.8%.

Question: What about the viability, T/C (second compound 1 µM, first compound 0.03 µM) of the same compound?
Answer: The viability, T/C was 60.8%.

Question: And the viability, T/C (second compound 1 µM, first compound 0.0949 µM)?
Answer: The viability, T/C was 61.1%.

Question: What about the viability, T/C (second compound 1 µM, first compound 0.3 µM) of the same compound?
Answer: The viability, T/C was 64%.

Question: What about the viability, T/C (second compound 1 µM, first compound 0.949 µM) of the same compound?
Answer: Its viability, T/C is 61.5%.

Question: What about the viability, T/C (second compound 1 µM, first compound 3 µM) of the same compound?
Answer: The viability, T/C was 63.2%.

Question: Which results are given for `Cn1ncnc1[C@H]1c2n[nH]c(=O)c3cc(F)cc(c23)N[C@@H]1c1ccc(F)cc1` + Cc1c(S(C)(=O)=O)c(-c2cc(F)cc(N3CCN(c4ccc(NS(=O)(=O)c5ccc(NC(CCN6CCC(C(=O)OCCCP(=O)(O)O)CC6)CSc6ccccc6)c(S(=O)(=O)C(F)(F)F)c5)cc4)CC3)c2)c(-c2ccc(Cl)cc2)n1C(C)C?
Answer: IC50 (second compound 0.1 µM): > 100 nM; IC50 (second compound 0.316 µM): > 100 nM; IC50 (second compound 1 µM): > 100 nM; IC50 (second compound 3.16 µM): > 100 nM; IC50 (second compound 10 µM): 99.3 nM; viability, T/C (second compound 0.1 µM, first compound 0.000316 µM): 90.6%; viability, T/C (second compound 0.1 µM, first compound 0.001 µM): 89.9%; viability, T/C (second compound 0.1 µM, first compound 0.00316 µM): 82.1%; viability, T/C (second compound 0.1 µM, first compound 0.01 µM): 73.9%; viability, T/C (second compound 0.1 µM, first compound 0.0316 µM): 76.9%; viability, T/C (second compound 0.1 µM, first compound 0.1 µM): 65.2%; viability, T/C (second compound 0.316 µM, first compound 0.000316 µM): 87.7%; viability, T/C (second compound 0.316 µM, first compound 0.001 µM): 79%; viability, T/C (second compound 0.316 µM, first compound 0.00316 µM): 71.6%; viability, T/C (second compound 0.316 µM, first compound 0.01 µM): 69.2%; viability, T/C (second compound 0.316 µM, first compound 0.0316 µM): 69.7%; viability, T/C (second compound 0.316 µM, first compound 0.1 µM): 58.5%; viability, T/C (second compound 1 µM, first compound 0.000316 µM): 79%; viability, T/C (second compound 1 µM, first compound 0.001 µM): 85.1%; viability, T/C (second compound 1 µM, first compound 0.00316 µM): 78.4%; viability, T/C (second compound 1 µM, first compound 0.01 µM): 63.9%; viability, T/C (second compound 1 µM, first compound 0.0316 µM): 64%; viability, T/C (second compound 1 µM, first compound 0.1 µM): 61.6%; viability, T/C (second compound 3.16 µM, first compound 0.000316 µM): 83.4%; viability, T/C (second compound 3.16 µM, first compound 0.001 µM): 68%; viability, T/C (second compound 3.16 µM, first compound 0.00316 µM): 70.3%; viability, T/C (second compound 3.16 µM, first compound 0.01 µM): 61%; viability, T/C (second compound 3.16 µM, first compound 0.0316 µM): 57.5%; viability, T/C (second compound 3.16 µM, first compound 0.1 µM): 55%; viability, T/C (second compound 10 µM, first compound 0.000316 µM): 82%; viability, T/C (second compound 10 µM, first compound 0.001 µM): 72%; viability, T/C (second compound 10 µM, first compound 0.00316 µM): 77.7%; viability, T/C (second compound 10 µM, first compound 0.01 µM): 68.7%; viability, T/C (second compound 10 µM, first compound 0.0316 µM): 55.2%; viability, T/C (second compound 10 µM, first compound 0.1 µM): 50%
